In US20260144798A1, “Disruption of Vascular Smooth Muscle Relaxation by Carfilzomib May be the Primary Reason for CFZ-Induced Vascular Dysfunction” (AMGEN INC., priority 2019, published 2026):

Experiments:
[1] = system: rat aortic rings; assay: sGC activator (cinaciguat, riociguat)-induced relaxation of rat aortic rings; details: cinaciguat or riociguat (FIG. 4C)
Method: An isometric myograph (DMT 620M) was used for ex vivo measurement of vascular function. Eight-to 10-week old Sprague Dawley rats (purchased from Charles River Laboratories, Wilmington, MA) were first anesthetized with 3% isoflurane and then euthanized using inhaled desflurane. The aortas were isolated in an ice-cold, oxygenated (95% O2, 5% CO2) Krebs-Henseleit buffer (118.3 mM NaCl, 4.7 mM KCl, 1.2 mM MgSO4, 1.2 mM KH2PO4, 2.5 mM CaCl2, 25 mM NaHCO3, and 11.0 mM glucose; purchased from Sigma-Aldrich, St. Louis, MO). The thoracic aorta was carefully cleaned to remove perivascular fat and cut into 2-mm rings that were mounted between two stainless steel wires in the myograph chamber containing 8 mL of Krebs-Henseleit buffer in 95% O2 and 5% CO2 at 37° C. First, the rings were equilibrated in the chamber for 20 minutes, followed by a gradual increase of mechanical stretch until a final stretch of 10 mN (Newton) was reached. After an additional incubation with fresh buffer for 30 minutes, the rings were constricted with 8 mL of 80 mM KPSS (43 mM NaCl, 80 mM KCl, 2.5 mM CaCl2, 1.2 mM MgSO4, 1.2 mM KH2PO4, 25.0 mM NaHCO3, and 11.0 mM glucose) for 15 to 20 minutes, followed by 3 washes with the Krebs-Henseleit buffer until the force returned to the baseline stretch. The tension of the aortic rings was continuously measured with the Lab Chart 7 data acquisition system (ADInstruments, Colorado Springs, CO). […] The tension of the aortic rings was continuously measured with the Lab Chart 7 data acquisition system (ADInstruments, Colorado Springs, CO).
To assess the effect of CFZ on vascular contraction, the aortic rings were pre-treated with or without CFZ for 2 hours, followed by treatment with an increasing concentration of phenylephrine (PE) from 10 nM to 1 μM. […] The contraction was continuously measured and plotted as percent contraction normalized to the response of KPSS. […] The relaxation was continuously measured and plotted as percent relaxation normalized to the response with 1 μM PE.

[2] = system: rat aortic rings; assay: Angiotensin induced contraction (AUC) of rat aortic rings; details: LNAME+indomethacin, 2.7 μM CFZ 1.5 hour, 30 nM Angiotensin 30 min (FIG. 11)
Method: Following the two incubation the rings were treated with either vehicle or 2.7 μM CFZ for further 1.5 hours before addition of 30 nM Angiotensin for 30 min. Angiotensin induced transient contraction which returned to the baseline in 30 mins. Area Under the Curve (AUC) of angiotensin induced contraction was measured.
Aortic rings were incubated for 10 min with 100 μM LNAME+10 μM indomethacin (endothelium derived relaxing agents blockers) for 10 mins followed by addition of 10 μM SB 203580 (p38 inhibitor) or PF3644022 (MAPKAPK-2 inhibitor) in some rings for 10 more mins as indicated. This was followed by addition of 2.7 μM CFZ in some rings as indicated for 1.5 hour. 30 nM Angiotensin was added for 30 min. Angiotensin induced transient contraction which returned to the baseline in 30 mins.

[3] = system: P38 pathway; assay: Western blot for activation of p38 pathway in rat aortic rings; details: 2.7 μM CFZ 1.5 hours, with or without indomethacin plus LNAME (FIG. 7)
Method: Aortas were isolated from 8-10 week old CD® (Sprague Dawley) rats (from Charles River Laboratories) in an ice-cold, oxygenated (95% O2, 5% CO2) Krebs-Henseleit buffer. The aortas were then carefully cleaned to remove perivascular fat and cut into 2-mm rings that were mounted between two stainless steel wires in the myograph chamber containing 8 mL of Krebs-Henseleit buffer in 95% O2 and 5% CO2 at 37° C. Rings were stretch until a final stretch of 10 mN (Newton) was reached and incubated for 30 mins for equilibration. The rings were constricted with 8 mL of 80 mM KPSS for 15 minutes, followed by 3 washes with the Krebs-Henseleit buffer until the force returned to the baseline stretch. The aorta were then treated for one of the following experiments: • For protein expression studies the aortic rings were pre-treated with 100 μM N(gamma)-nitro-L-arginine methyl ester (L-NAME; Sigma-Aldrich) and 10 μM indomethacin for 10 minutes prior to the pre-incubation with CFZ (Amgen Inc.) for 1.5 hours. The rings were then isolated for protein expression analysis. […]

[4] = system: rat aortic rings; assay: Acetylcholine-induced relaxation of phenylephrine-precontracted rat aortic rings
Method: An isometric myograph (DMT 620M) was used for ex vivo measurement of vascular function. Eight-to 10-week old Sprague Dawley rats (purchased from Charles River Laboratories, Wilmington, MA) were first anesthetized with 3% isoflurane and then euthanized using inhaled desflurane. The aortas were isolated in an ice-cold, oxygenated (95% O2, 5% CO2) Krebs-Henseleit buffer (118.3 mM NaCl, 4.7 mM KCl, 1.2 mM MgSO4, 1.2 mM KH2PO4, 2.5 mM CaCl2, 25 mM NaHCO3, and 11.0 mM glucose; purchased from Sigma-Aldrich, St. Louis, MO). The thoracic aorta was carefully cleaned to remove perivascular fat and cut into 2-mm rings that were mounted between two stainless steel wires in the myograph chamber containing 8 mL of Krebs-Henseleit buffer in 95% O2 and 5% CO2 at 37° C. First, the rings were equilibrated in the chamber for 20 minutes, followed by a gradual increase of mechanical stretch until a final stretch of 10 mN (Newton) was reached. After an additional incubation with fresh buffer for 30 minutes, the rings were constricted with 8 mL of 80 mM KPSS (43 mM NaCl, 80 mM KCl, 2.5 mM CaCl2, 1.2 mM MgSO4, 1.2 mM KH2PO4, 25.0 mM NaHCO3, and 11.0 mM glucose) for 15 to 20 minutes, followed by 3 washes with the Krebs-Henseleit buffer until the force returned to the baseline stretch. The tension of the aortic rings was continuously measured with the Lab Chart 7 data acquisition system (ADInstruments, Colorado Springs, CO). In Some of the experiments the aortic rings were pre-treated with 100 μM N(gamma)-nitro-L-arginine methyl ester (L-NAME; Sigma-Aldrich) and 10 μM indomethacin for 10 minutes prior to the pre-incubation with CFZ (Amgen Inc.) for 2 hours. After an additional incubation with fresh buffer for 30 minutes, the rings were constricted with 8 mL of 80 mM KPSS (43 mM NaCl, 80 mM KCl, 2.5 mM CaCl2, 1.2 mM MgSO4, 1.2 mM KH2PO4, 25.0 mM NaHCO3, and 11.0 mM glucose) for 15 to 20 minutes, followed by 3 washes with the Krebs-Henseleit buffer until the force returned to the baseline stretch. The tension of the aortic rings was continuously measured with the Lab Chart 7 data acquisition system (ADInstruments, Colorado Springs, CO).
For assessment of the effect of CFZ on vascular relaxation, the pre-treated aortic rings were incubated with 1 μM PE for 20 minutes to induce contraction. For experiments involving sildenafil and tadalafil, a 10-minute pre-treatment with 30 nM of these smooth muscle relaxants was done prior to the incubation with CFZ. After reaching a stable contraction, ACh, sodium nitroprusside (SNP), nifedipine, riociguat, or cinaciguat was added to the chamber at an increasing concentration from 100 pM to 10 μM; each stepwise concentration increase was added after the response to the current concentration reached a plateau. The relaxation was continuously measured and plotted as percent relaxation normalized to the response with 1 μM PE.

[5] = system: VASP; assay: Western blot of p-VASP (S239) in rat thoracic aortic tissue; details: CFZ treatment vs vehicle control (FIG. 6A)
Method: Each cell pellet was lysed in 50 to 70 μL RIPA buffer (Cell Signaling Technology, Danvers, MA) with the Halt™ protease and phosphatase inhibitor cocktail (Thermo Fisher Scientific). Lysates were quantitated and loaded onto the Li-COR Western blot system. Antibodies specific to phosphorylated eNOS and eNOS from Thermo Fisher Scientific, anti-Guanylyl Cyclase β1 (ER-19) (Sigma-Aldrich), and β-Actin (Sigma-Aldrich) were diluted 1:1000 for Western blot. Antibodies specific to p-VASP, VASP, and GADPH-HRP were purchased from Cell Signaling Technology. […] The number of measurements is indicated by “n.” #denotes P<0.05 (red vs. blue).

CC(C)C[C@H](NC(=O)[C@H](CCc1ccccc1)NC(=O)CN1CCOCC1)C(=O)N[C@@H](Cc1ccccc1)C(=O)N[C@@H](CC(C)C)C(=O)[C@@]1(C)CO1 [CFZ, carfilzomib]
effect on VSM relaxation in the presence of sGC activators [1]: did not interfere with VSM relaxation
angiotensin induced contraction, area under the curve [2]: increased angiotensin induced contraction
activation of p38 pathway [3]: caused activation of P38 pathway with or without endothelium dependent relaxing factors
EC50 for ACh-induced relaxation, CFZ alone ([4]; FIG. 5B experiment, vehicle alone 1.9×10^−8): 7.3×10^−8
EC50 for ACh-induced relaxation ([4]; in the presence of CFZ 2.7 μM, vehicle alone 3.2×10^−8 (FIG. 2A)): 1.4×10 ^−7
effect on ACh-induced relaxation (percent relaxation) ([4]; increasing CFZ concentrations, high concentrations of ACh (FIG. 2A)): significantly compromised
level of p-VASP [5]: reduced level of p-VASP compared with the vehicle control
